Source: US20230100235A1, “ANTICANCER AGENT COMPOSITION” (CARNA BIOSCIENCES, INC., priority 2020, published 2023)

What was measured:
[1] = tested on: OCI-Ly10 cells; test: Cell proliferation suppression test of single agents, OCI-Ly10 (Alamar Blue, 96 h); assay type: cell-based, Human; settings: Homo sapiens, OCI-Ly10, single agent, read-out: Inhibitory Activity on cell proliferation IC50 OCI-Ly10
Method: Human lymphoma cell line OCI-Ly10 cells (obtained from University Health Network) were cultured in a 5% CO2 incubator using IMDM medium (Iscove's Modified Dulbecco's Medium, Thermo Fisher Scientific Inc.) containing 20% fetal bovine serum (GE Healthcare) and 1% penicillin streptomycin (NACALAI TESQUE, INC.).
(§1) The OCI-Ly10 or U2932 cells (20000 cells/well) were seeded into 96-well plates (cell plates), to which the test compound diluted with the medium was added at final concentrations of 0.009 nM to 30000 nM (a final DMSO concentration of 0.3%), and after 96 hours of culture, an Alamar Blue reagent (Thermo Fisher Scientific Inc.) was added. After 3 hours, the fluorescence of excitation wavelength 560 nm/fluorescence wavelength 590 nm was measured and IC50 values of inhibitory activity were determined by setting a compound-free and cell-free well as 100% and a compound-free and cell-containing well as 0%.

[2] = tested on: U2932 cells; test: Dose-response study of BTK inhibitor in the presence of BCL-2 inhibitor, U2932; assay type: cell-based; settings: Homo sapiens, read-out: Inhibitory activity on cell proliferation U2932 IC50
Method: as §1
(§2) Changes in IC50 values of the BTK inhibitor in the presence of the BCL-2 inhibitor at various concentrations were examined.
From the result obtained for the BCL-2 inhibitor used as a single agent, BCL-2 inhibitor concentrations for three doses were selected for each cancer cell line.

[3] = tested on: BTK-C481S-mutant OCI-Ly10 cells; test: Cell proliferation suppression test of single agents, BTK-C481S-mutant OCI-Ly10; assay type: cell-based, Human; settings: Homo sapiens, OCI-Ly10; single agent; read-out: Inhibitory activity on cell proliferation OCI-Ly10 BTK-C481S IC50
Method: as §1
(§3) BTK-C481S-mutant OCI-Ly10 cells were produced by point mutation knock-in using the CRISPR-Cas9 system. Cas9 protein (Thermo Fisher Scientific Inc.), guide RNA prepared with GeneArt™ Precision gRNA Synthesis Kit (Thermo Fisher Scientific Inc.), and a single-stranded synthetic oligonucleotide to replace 481st cysteine residue of BTK with a serine residue were introduced into OCI-Ly10 cells by an electroporation method. The resulting modified OCI-Ly10 cells were cultured in the presence of ibrutinib, and the grown cells were used as BTK-C481S-mutant OCI-Ly10 cells. Transduction of the mutation was confirmed by genomic DNA and mRNA sequence analysis.
In the same manner as in Test Example 1, IC50 values for each inhibitor single agent were determined.

[4] = tested on: BTK-C481S-mutant OCI-Ly10 cells; test: Dose-response study of BTK inhibitor in the presence of BCL-2 inhibitor, BTK-C481S-mutant OCI-Ly10; assay type: cell-based; settings: Homo sapiens, read-out: Inhibitory activity on cell proliferation OCI-Ly10 BTK-C481S IC50
Method: as §3
BTK-C481S-mutant lymphoma cells were used to examine changes in IC50 values of the BTK inhibitor in the presence of various concentrations of BCL-2 inhibitor.
From the results obtained for the BCL-2 inhibitor used as a single agent, BCL-2 inhibitor concentrations for three doses were selected for BTK-C481-mutant OCI-Ly10 cells.

[5] = tested on: BTK-C481S-mutant OCI-Ly10 cells; test: Combined effect by BLISS score, BTK-C481S-mutant OCI-Ly10; assay type: cell-based, Human; settings: combination with venetoclax, positive = synergistic
Method: After 96 hours of culture, an Alamar Blue reagent was added, and 3 hours later, fluorescence of excitation wavelength 560 nm/fluorescence wavelength 590 nm was measured. Cell proliferation inhibition rate and viability (100−inhibition rate %) were determined by setting a compound-free and cell-free well as 100% and a compound-free and cell-containing well as 0%.
as §3
The BLISS score was calculated in the same manner as in Example 1.

[6] = tested on: OCI-Ly10 cells; test: Dose-response study of BTK inhibitor in the presence of BCL-2 inhibitor, OCI-Ly10; assay type: cell-based; settings: Homo sapiens, read-out: Inhibitory activity on cell proliferation OCI-Ly10 IC50
Method: as §1, §2

[7] = tested on: U2932 cells; test: Cell proliferation suppression test of single agents, U2932 (Alamar Blue, 96 h); assay type: cell-based, Human; settings: Homo sapiens, U2932, single agent, read-out: Inhibitory Activity on cell proliferation IC50 U2932
Method: Human lymphoma cell line U2932 cells (obtained from DSMZ) were cultured in a 5% CO2 incubator using RPMI medium (Roswell Park Memorial Institute medium, Thermo Fisher Scientific Inc.) containing 10% fetal bovine serum (GE Healthcare) and 1% penicillin streptomycin (NACALAI TESQUE, INC.).
as §1

[8] = OCI-Ly10, in the presence of S-55746 10 nM
[9] = OCI-Ly10, in the presence of S-55746 30 nM
[10] = OCI-Ly10, in the presence of S-55746 100 nM
[11] = OCI-Ly10, in the presence of navitoclax 10 nM
[12] = OCI-Ly10, in the presence of navitoclax 30 nM
[13] = OCI-Ly10, in the presence of navitoclax 100 nM
[14] = OCI-Ly10, in the presence of obatoclax mesylate 50 nM
[15] = OCI-Ly10, in the presence of obatoclax mesylate 100 nM
[16] = OCI-Ly10, in the presence of obatoclax mesylate 200 nM
[17] = OCI-Ly10, in the presence of venetoclax 1 nM
[18] = OCI-Ly10, in the presence of venetoclax 3 nM
[19] = OCI-Ly10, in the presence of venetoclax 10 nM
[20] = OCI-Ly10, obatoclax mesylate 0 nM

Compound: Nc1nc(-c2cccc(-n3ccc4cc(C5CC5)cc(F)c4c3=O)c2CO)c2cc(C3=CCN(C4COC4)CC3)[nH]c2n1 [Compound (I-A), 2-(3-{2-amino-6-[1-(oxetan-3-yl)-1,2,3,6-tetrahydropyridin-4-yl]-7H-pyrrolo[2,3-d]pyrimidin-4-yl}-2-(hydroxymethyl)phenyl)-6-cyclopropyl-8-fluoroisoquinolin-1(2H)-one]
- IC50 [1]: 2 nM
- IC50 ([2]; U2932, S-55746 0 nM): > 30000 nM
- IC50 ([2]; U2932, in the presence of S-55746 100 nM): 3480 nM
- IC50 ([2]; U2932, in the presence of S-55746 300 nM): 480 nM
- IC50 ([2]; U2932, in the presence of S-55746 1000 nM): 22 nM
- IC50 ([2]; U2932, in the presence of navitoclax 30 nM): 12000 nM
- IC50 ([2]; U2932, in the presence of navitoclax 100 nM): 1950 nM
- IC50 ([2]; U2932, in the presence of navitoclax 300 nM): 23 nM
- IC50 ([2]; U2932, in the presence of obatoclax mesylate 50 nM): 19600 nM
- IC50 ([2]; U2932, in the presence of obatoclax mesylate 100 nM): 13500 nM
- IC50 ([2]; U2932, in the presence of venetoclax 3 nM): 4800 nM
- IC50 ([2]; U2932, in the presence of venetoclax 10 nM): 1100 nM
- IC50 ([2]; U2932, in the presence of venetoclax 100 nM): 14 nM
- IC50 ([2]; U2932, navitoclax 0 nM): 28500 nM
- IC50 ([2]; U2932, obatoclax mesylate 0 nM): 25900 nM
- IC50 ([2]; U2932, venetoclax 0 nM): 13600 nM
- IC50 [3]: 15 nM
- IC50 ([4]; OCI-Ly10, S-55746 0 nM): 11 nM
- IC50 [4, 8]: 7.9 nM
- IC50 [4, 9]: 5.2 nM
- IC50 [4, 10]: 3.1 nM
- IC50 [4, 11]: 12 nM
- IC50 [4, 12]: 8.2 nM
- IC50 [4, 13]: 4.1 nM
- IC50 [4, 14]: 5.4 nM
- IC50 [4, 15]: 4.4 nM
- IC50 [4, 16]: 4 nM
- IC50 [4, 17]: 10 nM
- IC50 [4, 18]: 6.9 nM
- IC50 [4, 19]: 4.8 nM
- IC50 ([4]; OCI-Ly10, navitoclax 0 nM): 15 nM
- IC50 [4, 20]: 16 nM
- IC50 ([4]; OCI-Ly10, venetoclax 0 nM): 15 nM
- BLISS score [5]: positive values
- IC50 ([6]; OCI-Ly10, S-55746 0 nM): 2.1 nM
- IC50 [6, 8]: 1.3 nM
- IC50 [6, 9]: 1.1 nM
- IC50 [6, 10]: 0.6 nM
- IC50 [6, 11]: 1.4 nM
- IC50 [6, 12]: 1.1 nM
- IC50 [6, 13]: 0.8 nM
- IC50 [6, 14]: 0.9 nM
- IC50 [6, 15]: 0.9 nM
- IC50 [6, 16]: 0.9 nM
- IC50 [6, 17]: 1.5 nM
- IC50 [6, 18]: 1.5 nM
- IC50 [6, 19]: 1.3 nM
- IC50 [6, 20]: 1.2 nM
- IC50 ([6]; OCI-Ly10, venetoclax 0 nM): 2.1 nM
- IC50 [7]: 12500 nM
